Activity calls are given as the source filed them. The rule behind the calls is not given here.
How the values were obtained:
Heme [1] = experiment: Binding affinity to heme assessed as equilibrium binding constant by UV-visible spectrophotometry
Heme [2] = experiment: Inhibition of heme-mediated bovine serum albumin degradation at 100 uM after 1 hr by gel electrophoresis in presence of H2O2 at pH 7.4
Heme [3] = experiment: Inhibition of heme-mediated bovine serum albumin oxidation assessed as protein carbonyl formation after 1 hr in presence of H2O2 at pH 7.4

In the case of O=c1c2ccccc2[nH]c2cc([N+](=O)[O-])ccc12, the Ka (Heme [1]) is reported as 4.3 ×10⁴ /M, the inhibition (Heme [2]) is reported as “Active” and the IC50 (Heme [3]) is reported as 41 µM.
Compound O=C(O)c1cccc2c(=O)c3ccccc3[nH]c12 has a Ka (Heme [1]) of 3.8 ×10⁴ /M and an IC50 (Heme [3]) of 43 µM.
O=c1c2ccccc2[nH]c2ccccc12 [ACRIDONE] was tested, and the Ka (Heme [1]) was 2.4 ×10⁴ /M and the IC50 (Heme [3]) was 55 µM.
COc1ccc2[nH]c3ccccc3c(=O)c2c1 was tested, and the Ka (Heme [1]) was 2.7 ×10⁴ /M and the IC50 (Heme [3]) was 44 µM.
In the case of O=c1c2ccccc2[nH]c2cc(Cl)ccc12, the Ka (Heme [1]) is reported as 4.6 ×10⁴ /M, the inhibition (Heme [2]) is reported as “Active” and the IC50 (Heme [3]) is reported as 36 µM.
With COc1cc2c(c(O)c1OC)c(=O)c1ccccc1n2C [ARBORININE] the Ka (Heme [1]) was 3.9 ×10⁴ /M, the inhibition (Heme [2]) was “Active” and the IC50 (Heme [3]) was 42 µM.

Source: ChEMBL document CHEMBL1799952, “Synthesis of novel heme-interacting acridone derivatives to prevent free heme-mediated protein oxidation and degradation” (Bioorg Med Chem Lett, 2011)
